# Data taken from patent US20220110919A1, “METHODS OF MODULATING LEUKOCYTES ACTIVATION AND THROMBOCYTE CLEARANCE WITH INHIBITORS OF SPECIFIC NEURAMINIDASE ISOENZYMES” (The Governors of the University of Alberta, priority 2018, published 2022).
# Read-outs that look alike come from different tables or passages of the source.
# Columns and labels:
# NEU1 = target: T1, NEU1 (Homo sapiens, UniProt Q99519); test: Inhibition assay, 4MU-NANA cleavage, NEU1; type: biochemical
# T1 construct: His; made in house; host or cells: HEK293 cells (cell lysate, unpurified)
# Procedure: (§1) 4MU-NANA was then added to the mixture, making the final concentration of 4MU-NANA as 50 μM and the total volume of the reaction mixture as 20 μL. […] Assays were performed with duplicates for each point and IC50 was obtained by plotting the data with Graphpad™ Prism 5.0.
# NEU3 = target: T2, NEU3 (Homo sapiens, UniProt Q9UQ49); test: Inhibition assay, 4MU-NANA cleavage, NEU3; type: biochemical
# T2 construct: MBP (N); made in house; host or cells: E. coli
# T2 sequence (Q9UQ49 1-428): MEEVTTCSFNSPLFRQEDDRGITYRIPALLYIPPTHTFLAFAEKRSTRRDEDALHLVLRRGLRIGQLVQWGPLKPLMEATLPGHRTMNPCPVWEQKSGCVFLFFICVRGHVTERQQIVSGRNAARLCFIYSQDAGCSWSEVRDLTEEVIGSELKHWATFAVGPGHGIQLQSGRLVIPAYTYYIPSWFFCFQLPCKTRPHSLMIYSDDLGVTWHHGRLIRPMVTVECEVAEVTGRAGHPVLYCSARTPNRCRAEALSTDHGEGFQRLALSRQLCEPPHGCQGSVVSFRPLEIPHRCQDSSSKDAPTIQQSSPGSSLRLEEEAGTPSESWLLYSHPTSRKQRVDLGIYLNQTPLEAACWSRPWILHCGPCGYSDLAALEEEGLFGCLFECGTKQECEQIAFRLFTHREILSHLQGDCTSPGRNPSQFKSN
# Procedure: as §1
# NEU4 = target: T3, NEU4 (Homo sapiens, UniProt Q8WWR8); test: Inhibition assay, 4MU-NANA cleavage, NEU4; type: biochemical
# T3 construct: GST; made in house; host or cells: E. coli
# T3 sequence (Q8WWR8 1-484): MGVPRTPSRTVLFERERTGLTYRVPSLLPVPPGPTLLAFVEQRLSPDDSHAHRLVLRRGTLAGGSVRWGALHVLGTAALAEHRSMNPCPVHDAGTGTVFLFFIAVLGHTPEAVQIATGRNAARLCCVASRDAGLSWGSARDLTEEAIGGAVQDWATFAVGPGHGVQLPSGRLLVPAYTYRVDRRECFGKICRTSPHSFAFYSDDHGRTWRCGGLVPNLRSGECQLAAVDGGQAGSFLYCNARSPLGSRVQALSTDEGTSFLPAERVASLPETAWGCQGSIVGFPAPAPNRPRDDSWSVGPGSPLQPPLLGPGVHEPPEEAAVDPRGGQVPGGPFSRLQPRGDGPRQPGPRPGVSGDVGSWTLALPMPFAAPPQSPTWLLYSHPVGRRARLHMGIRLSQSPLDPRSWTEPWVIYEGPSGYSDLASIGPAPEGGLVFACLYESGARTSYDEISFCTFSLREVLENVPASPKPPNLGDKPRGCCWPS
# Procedure: as §1
# NEU1, NEU2, NEU3, NEU4 = test: Target isoenzyme and selectivity from IC50 data of Table I; type: biochemical, human; details: from IC50 values of Table I
# NEU2 = target: T4, NEU2 (Homo sapiens, UniProt Q9Y3R4); test: Inhibition assay, 4MU-NANA cleavage, NEU2; type: biochemical; details: 4MU-NANA as the substrate; pH 5.5
# T4 construct: MBP (N); made in house; host or cells: E. coli
# Procedure: as §1
# [1] = 4MU-NANA as the substrate, pH 4.5, read-out: IC50 NEU1
# [2] = compounds of Table I, read-out: IC50 against neu3
# [3] = compounds of Table I, read-out: IC50 against neu4
# [4] = 4MU-NANA as the substrate, pH 4.5, read-out: IC50 NEU4
# [5] = 4MU-NANA as the substrate, pH 4.5, read-out: IC50 NEU3
# T4 sequence (Q9Y3R4 whole entry): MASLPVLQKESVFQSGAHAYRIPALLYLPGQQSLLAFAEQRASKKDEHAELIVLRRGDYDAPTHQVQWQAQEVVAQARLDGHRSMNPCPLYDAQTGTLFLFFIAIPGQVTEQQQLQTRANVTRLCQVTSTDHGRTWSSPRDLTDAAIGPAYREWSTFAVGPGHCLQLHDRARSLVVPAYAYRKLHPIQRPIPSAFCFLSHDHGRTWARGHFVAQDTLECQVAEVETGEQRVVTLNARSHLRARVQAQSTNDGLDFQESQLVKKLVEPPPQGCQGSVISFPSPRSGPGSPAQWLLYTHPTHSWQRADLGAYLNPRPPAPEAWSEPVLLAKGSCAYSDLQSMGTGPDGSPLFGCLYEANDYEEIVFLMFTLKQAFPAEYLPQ
IC50 (NEU1; [1]) [µM],IC50 (NEU4; [3]) [µM],IC50 (NEU3; [5]) [µM],Structure (SMILES),also measured
0.55 ± 0.07,–,–,"CCCCC(C)C(=O)N[C@H]1[C@H]([C@H](O)[C@H](O)CO)OC(C(=O)O)=C[C@@H]1O (mixture of isomers) [compound 72, 5-(2-Methyl)hexanamido(S/R)-2,6-anhydro-3,5-dideoxy-d-glycero-d-galacto-non-2-enonic acid]",–
0.42 ± 0.07,–,–,"CCCCC(C)C(=O)N[C@H]1[C@H]([C@H](O)[C@H](O)CNC(C)=O)OC(C(=O)O)=C[C@@H]1O (mixture of isomers) [compound 74, 5-(2-Methyl)hexanamido(S/R)-9-acetanamido-2,6-anhydro-3,5-dideoxy-d-glycero-d-galacto-non-2-enonic acid]",–
–,–,–,CC(=O)N[C@@H]1C(N=[N+]=[N-])C=C(C(=O)O)OC1CNOCc1ccccc1 (stereo in doubt) [5c],IC50 (NEU3; [2]): < 1 µM
–,≤ 3,–,COc1ccc(-c2cn(C[C@@H](O)[C@@H](O)[C@@H]3OC(C(=O)O)=C[C@H](O)[C@H]3NC(C)=O)nn2)cc1 [7e],–
–,≤ 3,–,CC(=O)N[C@H]1[C@H]([C@H](O)[C@H](O)Cn2cc(-c3ccc(F)cc3)nn2)OC(C(=O)O)=C[C@@H]1O [7f],"Selectivity (NEU1, NEU2, NEU3, NEU4): 10"
–,≤ 10,–,CC(=O)N[C@H]1[C@H]([C@H](O)[C@H](O)Cn2cc(-c3ccc(C(F)(F)F)cc3)nn2)OC(C(=O)O)=C[C@@H]1O [7g],–
–,≤ 3,–,CC(=O)N[C@@H]1C(O)C=C(C(=O)O)OC1C(O)C(O)Cn1cc(-c2ccc(C(=O)O)cc2)nn1 (stereo partly shown) [7h],–
–,< 1,–,CC(=O)N[C@@H]1C(O)C=C(C(=O)O)OC1C(O)C(O)Cn1cc(-c2ccc(-c3ccccc3)cc2)nn1 (stereo partly shown) [7i],–
> 500,–,> 500,"CCC(=O)N[C@H]1C=C(C(=O)O)O[C@@H]([C@H](O)[C@H](O)CO)[C@@H]1NC(C)=O [25a, 5-Acetamido-2,6-anhydro-4-propionamido-3,4,5-trideoxy-D-glycero-D-galacto-non-2-enonic acid]",IC50 (NEU4; [4]): > 500 µM
> 500,–,> 500,"CCCCC(=O)N[C@H]1C=C(C(=O)O)O[C@@H]([C@H](O)[C@H](O)CO)[C@@H]1NC(C)=O [25b, 5-Acetamido-2,6-anhydro-4-pentanamido-3,4,5-trideoxy-D-glycero-D-galacto-non-2-enonic acid]",IC50 (NEU4; [4]): > 500 µM
> 500,–,> 500,"CC(=O)N[C@H]1[C@H]([C@H](O)[C@H](O)CO)OC(C(=O)O)=C[C@@H]1NC(=O)C1CC1 [25c, 5-Acetamido-2,6-anhydro-4-cyclopropanecarboxamido-3,4,5-trideoxy-D-glycero-D-galacto-non-2-enonic acid]",IC50 (NEU4; [4]): > 500 µM
> 500,–,> 500,"CC(=O)N[C@H]1[C@H]([C@H](O)[C@H](O)CO)OC(C(=O)O)=C[C@@H]1NC(=O)C1CCC1 [25d, 5-Acetamido-2,6-anhydro-4-cyclobutanecarboxamido-3,4,5-trideoxy-D-glycero-D-galacto-non-2-enonic acid]",IC50 (NEU4; [4]): > 500 µM
> 500,–,–,CC(=O)N[C@H]1[C@H]([C@H](O)[C@H](O)Cn2cc(-c3ccc(C(=O)O)cc3)nn2)OC(C(=O)O)=C[C@@H]1N=[N+]=[N-] [compound 13],"Selectivity (NEU1, NEU2, NEU3, NEU4): 20; IC50 (NEU2): > 500 µM"
> 500,–,> 500,CC(=O)NC1C(N)C=C(C(=O)O)OC1C(O)C(O)Cn1cc(-c2ccc(C(=O)O)cc2)nn1 (stereo not shown) [compound 15],IC50 (NEU4; [4]): > 500 µM; IC50 (NEU2): > 500 µM
> 500,–,> 500,CC(=O)NC1C(NC(=O)NCCC(=O)O)C=C(C(=O)O)OC1C(O)C(O)Cn1cc(-c2ccc(C(=O)O)cc2)nn1 (stereo not shown) [compound 18],–
–,≤ 3,–,CC(=O)N[C@@H]1C(O)C=C(C(=O)O)OC1C(O)C(O)Cn1cc(CNC(=O)c2ccccc2)nn1 (stereo partly shown) [compound 26],–
–,≤ 10,–,CC(=O)N[C@@H]1C(O)C=C(C(=O)O)OC1C(O)C(O)Cn1cc(-c2ccc(NC(=O)c3ccccc3)cc2)nn1 (stereo partly shown) [compound 27],–
> 500,–,80 ± 10,"CC(=O)N[C@H]1C(C(O)C(O)Cn2cc(CO)nn2)OC(C(=O)O)=C[C@H]1O (stereo partly shown) [compound 28, C9-4HMT-DANA]",IC50 (NEU3; [2]): ≤ 100 µM
8.4 ± 0.5,≤ 10,15 ± 2,"CCCC(=O)N[C@H]1[C@H]([C@H](O)[C@H](O)CO)OC(C(=O)O)=C[C@@H]1O [compound 30, 5-Butyramido-2,6-anhydro-3,5-dideoxy-D-glycero-D-galacto-non-2-enonic acid]","IC50 (NEU4; [4]): 8.4 ± 0.4 µM; IC50 (NEU1; compounds of Table I, read-out: IC50 against neu1): ≤ 10 µM"
–,≤ 10,–,"[N-]=[N+]=NCC(=O)N[C@@H]1C(O)C=C(C(=O)O)OC1C(O)C(O)CO (stereo partly drawn) [compound 40, 5-(N-2-azidoacetyl)-2,3,5-trideoxy-D-glycero-D-galacto-2-nonulopyranosonic acid]",–
–,–,–,"CC(=O)Nc1ccc(C(=O)NC[C@@H](O)[C@@H](O)[C@@H]2OC(C(=O)O)=C[C@H](O)[C@H]2NC(C)=O)cc1 [compound 58, 5-Acetamido-9-(4-acetamido)benzamido-2,6-anhydro-3,5-dideoxy-d-glycero-d-galacto-non-2-enonic acid]",IC50 (NEU3; [2]): ≤ 10 µM
–,–,–,"CC(=O)Nc1cccc(C(=O)NC[C@@H](O)[C@@H](O)[C@@H]2OC(C(=O)O)=C[C@H](O)[C@H]2NC(C)=O)c1 [compound 60, 5-Acetamido-9-(3-acetamido)benzamido-2,6-anhydro-3,5-dideoxy-d-glycero-d-galacto-non-2-enonic acid]",IC50 (NEU3; [2]): ≤ 10 µM
–,≤ 3,–,"CCCCCc1cn(C[C@@H](O)[C@@H](O)[C@@H]2OC(C(=O)O)=C[C@H](O)[C@H]2NC(C)=O)nn1 [compound 63, 5-Acetamido-9-(4-pentyl)triazolyl-2,6-anhydro-3,5-dideoxy-d-glycero-d-galacto-non-2-enonic acid]",IC50 (NEU3; [2]): ≤ 10 µM
–,–,> 500,"CCCCCC(=O)NC[C@@H](O)[C@@H](O)[C@@H]1OC(C(=O)O)=C[C@H](O)[C@H]1NC(=O)CCCCC [compound 64, 5-Hexanamido-9-hexanamido-2,6-anhydro-3,5-dideoxy-d-glycero-d-galacto-non-2-enonic acid]",IC50 (NEU4; [4]): > 500 µM
–,–,> 500,"CCCCC(=O)NC[C@@H](O)[C@@H](O)[C@@H]1OC(C(=O)O)=C[C@H](O)[C@H]1NC(=O)CC [compound 65, 5-Propionamido-9-pentanamido-2,6-anhydro-3,5-dideoxy-D-glycero-D-galacto-non-2-enonic acid]",–
–,–,> 500,"CCCCCC(=O)N[C@H]1[C@H]([C@H](O)[C@H](O)CNC(C)=O)OC(C(=O)O)=C[C@@H]1O [compound 68, 5-Hexanamido-9-acetamido-2,6-anhydro-3,5-dideoxy-D-glycero-D-galacto-non-2-enonic acid]",–
–,–,> 500,"CCCCCC(=O)N[C@H]1[C@H]([C@H](O)[C@H](O)CNC(=O)CC)OC(C(=O)O)=C[C@@H]1O [compound 69, 5-Hexanamido-9-propionamido-2,6-anhydro-3,5-dideoxy-d-glycero-d-galacto-non-2-enonic acid]",–
–,–,> 500,"CCCCCC(=O)N[C@H]1[C@H]([C@H](O)[C@H](O)CNC(=O)CCC)OC(C(=O)O)=C[C@@H]1O [compound 70, 5-Hexanamido-9-butanamido-2,6-anhydro-3,5-dideoxy-D-glycero-D-galacto-non-2-enonic acid]",IC50 (NEU4; [4]): > 500 µM
